Where “and” joins values, the source holds several entries; their conditions need not be identical. Identical values can stand only once. Like-named read-outs stand apart in the source and are kept apart here.
Legend:
[1] = test system: L-DOPA induced dyskinesia in 6-OHDA lesioned rats; test: chronic model of L-DOPA induced dyskinesia in unilaterally 6-OHDA lesioned rats (dyskinesia score); format: in vivo; design: side effects: dose or concentration left out as unconfirmed
From the text: Method: The model has been developed by Cenci, Lee and Bjorklund (L-DOPA-induced dyskinesia in the rat is associated with striatal overexpression of prodynorphin- and glutamic acid decarboxylase mRNA, Eur J. Neurosci. 1998; 10:2694-706) and was modified to show more severe dyskinesia. In brief, rats are first unilaterally lesioned in the medial forebrain bundle resulting in a near complete loss of the mesostriatal dopamine pathway. After a recovery, rats receive daily doses of both, L-DOPA and benserazide. Within less than 3 weeks, rats develop typical dyskinetic movements, both affecting their forearms and the oral regions. […] The dyskinesia can be quantified using an easy and reliable scoring system developed by Cenci et al.
Dopamine-denervating lesions were performed by unilateral injections of 8 μg 6-OHDA in the left medial forebrain bundle of female Sprague-Dawley rats. All rats were tested for amphetamine-induced rotational behaviour 2 weeks after the injection. Rats showing >4 ipsilateral rotations/min over a 90-minute period were presumed to have a striatal dopamine depletion of more than 90%. At 4 weeks post lesion, 2 groups started to receive chronic treatment with either 20 mg/kg levodopa and 15 mg/kg benserazide or vehicle for 20 days. For rating, dyskinesia was classified into three subtypes (limb, axial and orolingual) and scored from 0 (=absent) to 4 (=permanent, not suppressible) over 200 minutes and every 30 minutes.
Results and Discussion: For drug testing, retigabine (2.5 and 5 mg/kg) was administered additional to levodopa and vehicle respectively. Effects of drug action in comparison to vehicle controls were detected by adding up the severity scores of each observation time.
To test the effect of flupirtine, the compound was administered at the dose of 10 mg/kg i.p. after administration of L-DOPA in these rats. A full cross over design was utilized to account for individual variability. […] The studies are ongoing and will we extended to cover a full dose range. Also, other neuronal potassium channel openers covered by the patent application will be tested. […]

[2] = test system: dt^sz mutant hamster; format: in vivo, Syrian golden hamsters; conditions: for Maximum severity 1st h, drug: individual animals and Mean, score 0-6; for Latency to onset (min), Drug: time to stage 2, mean ± S.E.; for suppressing the symptoms of dystonia (summary statement): summary for the two animal models of dystonia/dyskinesia, no dose given; for Latency max (min), drug: latency to stage 6
From the text: Animals The dt^sz mutant hamsters (Syrian golden hamsters), used in the present experiments, were obtained by selective breeding as described in detail elsewhere (Richter and Löscher, 1998). In this inbred line of mutant hamsters the motor disturbances are transmitted by a recessive gene. All animal groups consisted of male and female hamsters, because there was no indication of sex-related differences in the severity of dystonia or in the response to drugs (Richter and Löscher, 1998). The animals were born and kept under controlled environmental conditions (23-25° C., 50-60% humidity, 13 h light/11 h dark cycle) with free access to standard Altromin 7204 diet and water. In cases of oral administrations the food was deprived for 2 h prior to the experiments. All experiments were carried out in the morning (08.30-12.00 a.m.) at controlled temperatures (23-25° C.).
Induction of dystonic episodes and severity-score of dystonia. […] After this procedure, dt^sz hamsters develop a sequence of abnormal movements and postures. Dystonia is the predominant symptom in these animals. The severity of dystonia can be rated by following score-system (Richter and Löscher, 1998): stage 1, flat body posture; stage 2, facial contortions, rearing with forelimbs crossing, disturbed gait with hyperextended forepaws; stage 3, hyperextended hindlimbs so that the animals appear to walk on tiptoes; stage 4, twisting movements and loss of balance; stage 5, hindlimbs hyperextended caudally; stage 6, immobilisation in a twisted, hunched posture with hind- and forelimbs tonically extended forward. After reaching the individual maximum stage the hamsters recover within 2-5 hours. The individual maximum stage of dystonia is usually reached within 3 hours after the hamsters were placed into the new cage. Therefore, the animals have to be observed for 3 h after the induction of dystonic attacks to determine the individual maximum stage reached after administrations of drugs or of vehicle (for pre- and post-drug control recordings).
In the present study, all animals were examined for the presence of dystonia after weaning at the age of 21 days by the triple stimulation procedure, including injections of saline. […] All groups of mutant hamsters used for investigations were repeatedly tested by triple stimulations (injections of saline) every 2 to 3 days after weaning until the severity of dystonia and latencies to the different stages were reproducible. The drug experiments were done in 30-42 days old hamsters, i.e. at an age of the maximum severity of dystonia.
Drug experiments The effects of the Kv7.2/7.3 channel activators retigabine (5, 7.5 and 10 mg/kg i.p. and 10 and 20 mg/kg p.o.) and flupirtine (10 and 20 mg/kg i.p.) were examined in groups of 6-10 dt^s/z hamsters. The total number of animals used for the present experiments was 68. The compounds were freshly dissolved in saline prior the experiments. Dystonic attacks were induced by the procedure of triple stimulation, as described above, but instead of saline the active compound was injected (injection volume: 5 ml/kg i.p. or p.o.). Pre- and post-drug control trials with the vehicle (injection volume: 5 ml/kg saline i.p. or p.o.) were undertaken 2-3 days before and 2-3 days after drug testing in the same animals. […] During this period the severity of dystonia, the latencies to the different stages and the side effects were noted. The rater of the severity score (and of the latencies to stages) was unaware whether the animals were treated with vehicle or an active principle. A second person who had done the preparation of the solutions observed the animals for behavioural effects. The side effects were not quantified, but locomotor activity and ataxia were determined according to a score system, as previously described (Löscher and Richter, 1994). […]

[3] = mean of 10 animals, 20 mg/kg i.p., age 36-38 days of life
[4] = 20 mg/kg p.o., first hour after administration

Structure (SMILES): CCOC(=O)Nc1ccc(NCc2ccc(F)cc2)nc1N [Flupirtine, ethyl-N-[2-amino-6-(4-fluorophenylmethylamino)pyridin-3-yl]-carbamate]
- tolerability ([1]; 10 mg/kg i.p. after administration of L-DOPA): well tolerated
- dyskinetic symptoms ([1]; 10 mg/kg i.p. after administration of L-DOPA, cross over design): capable of suppressing the typical dyskinetic symptoms
- antidystonic effects ([2]; 10 mg/kg i.p.): did not exerted significant antidystonic effects
- Maximum severity 1st h, drug ([2]; 10 mg/kg i.p.): 3 score (6×) and 2 score (2×)
- Latency to onset (min), Drug ([2]; 10.0 mg/kg i.p., n=8): 6.9 ± 1.6 min
- adverse effects ([2]; 10 mg/kg i.p., within the first hour after administration): moderate hypolocomotion and ataxia
- ataxia ([2]; 20 mg/kg i.p.): more marked ataxia (lasting up to 90 min)
- latency to onset of dystonia ([2]; 20 mg/kg i.p.): increased the latency to onset of dystonia
- progression of dystonia ([2]; 20 mg/kg i.p., first and second h): delayed the progression of dystonia
- locomotion ([2]; 20 mg/kg i.p., hyperlocomotion 15-60 min after injection): unequivocal hypolocomotion (5 to 15 min after injection) followed by hyperlocomotion
- maximum severity of dystonia ([2]; 20 mg/kg i.p., third h): reduced the maximum severity
- Latency to onset (min), Drug ([2]; 20.0 mg/kg i.p., n=10, *P<0.05): 13.8 ± 3.8* min
- Maximum severity 1st h (score of dystonia), drug ([2]; individual animals, 20 mg/kg i.p. (in 0.9% NaCl), dt^sz hamsters, age 36-38 days of life): 2 score
- Latency max (latency to stage 6), drug ([2]; individual animals, 20 mg/kg i.p., age 36-38 days of life): 154 min
- Latency onset (latency on stage 2), drug, Mean [2, 3]: 13.8 min
- Maximum severity 1st h (score of dystonia), drug, Mean [2, 3]: 2.0 score
- Maximum severity 2nd h (score of dystonia), drug, Mean [2, 3]: 2.6 score
- Maximum severity 3rd h (score of dystonia), drug, Mean [2, 3]: 2.9 score
- suppressing the symptoms of dystonia (summary statement) [2]: found to be effective

Structure (SMILES): CCOC(=O)Nc1ccc(NCc2ccc(F)cc2)cc1N [Retigabine, 2-amino-4-(4-fluorobenzylamino)-1-ethoxycarbonyl-aminobenzene]
- side effects ([1]; higher dosage, first hour of observation): marked hypolocomotion and ataxia
- Latency max (min), drug ([2]; 5 mg/kg i.p., individual animals): 43 min and 87 min and 39 min
- Latency to onset (min), Drug ([2]; 5.0 mg/kg i.p., n=9): 27.1 ± 17.7 min
- Latency max (min), drug ([2]; 7.5 mg/kg i.p., individual animals): 149 min
- Latency to onset (min), Drug ([2]; 7.5 mg/kg i.p., n=6, *P<0.05): 11.8 ± 1.0* min
- pain after injection ([2]; 10 mg/kg i.p., first 5 min after injection): writhed with pain
- Latency to onset (min), Drug ([2]; 10.0 mg/kg i.p., n=9): 7.1 ± 2.9 min
- Maximum severity 1st h, drug ([2]; 10 mg/kg p.o.): 3 score (6×) and 2 score
- Latency max (min), drug ([2]; 10 mg/kg p.o., individual animals): 168 min and 148 min
- Latency to onset (min), Drug ([2]; 10.0 mg/kg p.o., n=7): 4.9 ± 2.9 min
- locomotor activity ([2]; 10 mg/kg p.o., two hamsters): moderate reduction of the locomotor activity
- ataxia [2, 4]: seven animals exhibited moderate ataxia
- hypolocomotion [2, 4]: five hamsters showed moderate hypolocomotion
- Maximum severity 1st h, drug ([2]; 20 mg/kg p.o.): 2 score (9×) and 3 score
- Latency max (min), drug ([2]; 20 mg/kg p.o., individual animals): 104 min
- Latency to onset (min), Drug ([2]; 20.0 mg/kg p.o., n=10): 9.6 ± 2.0 min
- general condition ([2]; four hamsters, 5 mg/kg i.p. five days after 10 mg/kg i.p., one euthanized, dilated colon): bad general condition
- behavioural effects ([2]; i.p. injection, within the first h after administration): moderate to unequivocal hypolocomotion (sometimes interrupted by short lasting periods of increased locomotor activity) and ataxia
- side effects ([2]; oral doses of 10 and 20 mg/kg): did not exert severe side effects

Structure (SMILES): O=C1c2ccccc2C(Cc2ccncc2)(Cc2ccncc2)c2ccccc21 [XE-991, 10,10-bis(4-pyridinylmethyl)-9(10H)-anthracenone]
- side effects ([2]; 6 mg/kg as printed, two out of 8 animals, facial contortions 10-20 min after administration): moderate to unequivocal hyperlocomotion and moderate ataxia (up to 180 min) and marked initial facial contortions
- latency to onset of dystonia ([2]; i.p., not illustrated): tended to be decreased
- side effects ([2]; the higher dose, all hamsters): facial contortions, salivation and increased defecation
- side effects: locomotion and ataxia ([2]; the higher dose, first h after administration): unequivocal hyperlocomotion and ataxia

Structure (SMILES): COc1ccc(Cl)cc1C1(F)C(=O)Nc2cc(C(F)(F)F)ccc21 (stereo not shown) [maxipost, 3-(5-chloro-2-methoxyphenyl)-1,3-dihydro-3-fluoro-6-(trifluoromethyl)-2H-indole-2-one]
- suppressing the symptoms of dystonia (summary statement) [2]: found to be active

Reference: patent US20090137641A1, “Potassium Channel Activators for the Prevention and Treatment of Dystonia and Dystonia-Like Symptoms” (priority 2006, published 2009)
